Literature values in US20230330185A1, “METHODS AND COMPOSITIONS FOR TRANSDUCING HEMATOPOIETIC STEM AND PROGENITOR CELLS IN VIVO” (Magenta Therapeutics, Inc., priority 2020, published 2023).

Test system: hematopoietic stem and progenitor cells
Conditions: as described in U.S. Pat. No. 6,080,398 and 6,447,766; cited from earlier work

Row | Substance | potency to induce hematopoietic stem and progenitor cell mobilization, relative to parent peptide
1 | Gro-β T: truncated Gro-β with deletion of the first four N-terminal amino acids, SEQ ID NO: 2; CXCR2 agonist | superior to that of Gro-β by multiple orders of magnitude
2 | Gro-β T N65D: variant of Gro-β T with aspartic acid in place of asparagine at position 65, SEQ ID NO: 4 | substantially greater than that of Gro-β T
